This is an account of results in patent US20260193264A1, “BENZOYPARAZINE PYRAZINES AND THEIR USES” (FOGHORN THERAPEUTICS INC., priority 2022, published 2026).

Assay [1] addresses T1, HiBiT-BRM fusion protein in stable HeLa cell line (Homo sapiens, UniProt P51531).
T1 construct: expressed in transfected cells
The assay can be described thus: HiBiT-BRM cell-based degradation assay (Nano-Glo HiBiT Lytic Detection, 24 h). Also on record: DC50: scale not given here. Conditions: HeLa HiBiT-BRM cells; for DC50: read-out: BRM HiBit Degradation IC50; for BRM HiBit Degradation Maximum (%): top dose 30 μM. The procedure, abridged:
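Luminescence from HiBiT/LgBiT complementation after lysis reports remaining HiBiT-BRM in stable HeLa cells exposed to compound for 24 h. Dosing used 3-fold serial dilutions, 10 points, 30 μM top final concentration. DMSO and a 2 μM BRM/BRG1 degrader standard defined 0% and 100% degradation.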
A general note: The HiBiT peptide binds its large partner to form an active luciferase.

The target of assay [2] is T2, HiBit-BRG1 fusion protein in stable HeLa cell line expressing HiBit-BRG1 and LgBit (Homo sapiens, UniProt P51532).
T2 construct: expressed in transfected cells
In words: HiBiT-BRG1 cell-based degradation assay (Nano-Glo HiBiT, 24 h). The settings on record: HeLa HiBit-BRG1/LgBit cells; for DC50: read-out: BRMG1 HiBit Degradation IC50; for Dmax: top dose 30 μM, read-out: BRG1 HiBit Degradation Maximum (%). The procedure, abridged:
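Stable HeLa line co-expressing HiBiT-BRG1 and LgBiT, compound-treated 24 h; luminescence read after Nano-Glo HiBiT lytic reagent. % degradation normalised between DMSO (high control) and 2 μM reference BRM/BRG1 degrader (low control).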

T1 sequence (P51531 whole entry, the tested form may be a part): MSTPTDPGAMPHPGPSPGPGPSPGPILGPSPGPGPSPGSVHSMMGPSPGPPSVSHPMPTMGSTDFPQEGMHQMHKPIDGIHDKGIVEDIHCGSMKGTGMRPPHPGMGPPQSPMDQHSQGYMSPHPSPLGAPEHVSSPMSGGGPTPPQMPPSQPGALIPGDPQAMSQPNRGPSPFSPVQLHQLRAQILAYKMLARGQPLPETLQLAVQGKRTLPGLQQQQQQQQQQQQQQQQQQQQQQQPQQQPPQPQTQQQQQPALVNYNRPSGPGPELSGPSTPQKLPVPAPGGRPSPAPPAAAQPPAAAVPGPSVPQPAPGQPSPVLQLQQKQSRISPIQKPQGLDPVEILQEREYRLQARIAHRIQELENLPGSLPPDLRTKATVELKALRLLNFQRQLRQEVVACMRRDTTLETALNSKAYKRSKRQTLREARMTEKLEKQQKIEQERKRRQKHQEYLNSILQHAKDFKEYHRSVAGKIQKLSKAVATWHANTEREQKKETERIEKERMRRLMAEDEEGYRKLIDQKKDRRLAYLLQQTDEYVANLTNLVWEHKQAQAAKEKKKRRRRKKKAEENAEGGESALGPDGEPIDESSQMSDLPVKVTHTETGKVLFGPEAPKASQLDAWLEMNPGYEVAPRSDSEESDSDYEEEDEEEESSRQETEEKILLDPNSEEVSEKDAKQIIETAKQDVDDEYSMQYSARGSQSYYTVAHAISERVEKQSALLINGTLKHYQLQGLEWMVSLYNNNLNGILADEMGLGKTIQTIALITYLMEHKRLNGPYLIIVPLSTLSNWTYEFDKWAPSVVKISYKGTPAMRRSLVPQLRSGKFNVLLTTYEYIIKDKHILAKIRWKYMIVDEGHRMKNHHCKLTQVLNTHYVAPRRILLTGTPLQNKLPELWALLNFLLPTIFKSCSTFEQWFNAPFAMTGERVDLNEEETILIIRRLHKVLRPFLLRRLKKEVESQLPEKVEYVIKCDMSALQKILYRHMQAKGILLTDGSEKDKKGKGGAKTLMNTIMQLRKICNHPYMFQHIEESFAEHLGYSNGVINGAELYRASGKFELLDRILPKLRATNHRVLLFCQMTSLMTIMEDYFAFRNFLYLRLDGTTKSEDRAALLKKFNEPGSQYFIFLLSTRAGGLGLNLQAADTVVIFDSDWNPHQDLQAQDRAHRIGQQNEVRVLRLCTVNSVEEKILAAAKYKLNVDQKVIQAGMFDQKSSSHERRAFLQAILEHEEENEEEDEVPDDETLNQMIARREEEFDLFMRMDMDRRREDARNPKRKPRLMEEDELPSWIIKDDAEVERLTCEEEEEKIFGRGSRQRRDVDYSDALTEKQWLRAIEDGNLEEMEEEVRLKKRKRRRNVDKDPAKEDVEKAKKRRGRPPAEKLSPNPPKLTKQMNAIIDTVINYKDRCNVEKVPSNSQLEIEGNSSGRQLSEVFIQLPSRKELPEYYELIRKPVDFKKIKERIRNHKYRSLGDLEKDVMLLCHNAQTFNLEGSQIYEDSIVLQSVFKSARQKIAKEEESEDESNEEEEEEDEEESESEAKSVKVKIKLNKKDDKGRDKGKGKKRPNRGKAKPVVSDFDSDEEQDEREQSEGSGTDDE
T2 sequence (P51532 whole entry, the tested form may be a part): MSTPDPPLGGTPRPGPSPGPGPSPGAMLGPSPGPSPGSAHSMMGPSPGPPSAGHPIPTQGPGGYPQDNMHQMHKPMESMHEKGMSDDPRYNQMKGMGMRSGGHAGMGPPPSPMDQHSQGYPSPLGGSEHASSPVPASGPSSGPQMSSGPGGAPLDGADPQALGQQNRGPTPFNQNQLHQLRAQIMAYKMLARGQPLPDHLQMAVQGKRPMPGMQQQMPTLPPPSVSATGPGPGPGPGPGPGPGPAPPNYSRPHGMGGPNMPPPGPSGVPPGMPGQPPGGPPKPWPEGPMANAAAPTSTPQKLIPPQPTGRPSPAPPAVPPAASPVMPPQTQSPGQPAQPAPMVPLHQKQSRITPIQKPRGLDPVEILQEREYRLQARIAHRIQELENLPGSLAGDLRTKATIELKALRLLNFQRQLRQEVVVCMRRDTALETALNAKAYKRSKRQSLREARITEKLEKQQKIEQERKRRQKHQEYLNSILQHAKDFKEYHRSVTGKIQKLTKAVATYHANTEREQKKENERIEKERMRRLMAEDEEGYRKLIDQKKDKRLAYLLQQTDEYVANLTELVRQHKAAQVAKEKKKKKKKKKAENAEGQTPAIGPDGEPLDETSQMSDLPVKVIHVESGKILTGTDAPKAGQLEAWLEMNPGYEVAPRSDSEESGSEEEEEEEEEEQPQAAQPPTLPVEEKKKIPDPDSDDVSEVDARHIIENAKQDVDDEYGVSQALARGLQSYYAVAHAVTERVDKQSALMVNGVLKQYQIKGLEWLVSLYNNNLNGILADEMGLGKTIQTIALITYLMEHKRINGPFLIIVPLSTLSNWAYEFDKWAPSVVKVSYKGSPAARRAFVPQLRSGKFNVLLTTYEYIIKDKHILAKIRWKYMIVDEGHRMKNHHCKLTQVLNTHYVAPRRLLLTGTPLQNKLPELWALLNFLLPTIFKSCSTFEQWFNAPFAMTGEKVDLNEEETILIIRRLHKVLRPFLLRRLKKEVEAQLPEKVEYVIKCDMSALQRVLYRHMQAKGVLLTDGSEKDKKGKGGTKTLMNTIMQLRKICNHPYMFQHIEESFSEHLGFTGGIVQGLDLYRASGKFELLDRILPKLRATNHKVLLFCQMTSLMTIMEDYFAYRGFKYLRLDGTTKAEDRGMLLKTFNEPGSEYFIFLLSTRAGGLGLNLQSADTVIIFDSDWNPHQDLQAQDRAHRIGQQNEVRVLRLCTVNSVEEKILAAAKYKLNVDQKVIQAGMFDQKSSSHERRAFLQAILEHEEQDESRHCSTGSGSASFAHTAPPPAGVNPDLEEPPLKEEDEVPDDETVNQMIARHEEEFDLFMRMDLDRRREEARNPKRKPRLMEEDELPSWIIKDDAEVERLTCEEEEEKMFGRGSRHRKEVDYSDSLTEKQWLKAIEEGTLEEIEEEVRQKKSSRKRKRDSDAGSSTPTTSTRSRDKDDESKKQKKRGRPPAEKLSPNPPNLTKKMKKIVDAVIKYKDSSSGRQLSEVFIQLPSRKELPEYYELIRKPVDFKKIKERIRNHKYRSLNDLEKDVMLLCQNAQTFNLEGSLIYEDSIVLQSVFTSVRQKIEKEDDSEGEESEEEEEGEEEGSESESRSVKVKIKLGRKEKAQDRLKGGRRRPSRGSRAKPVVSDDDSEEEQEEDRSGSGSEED

As to `Cc1ncsc1-c1ccc([C@H](C)NC(=O)[C@@H]2C[C@@H](O)CN2C(=O)[C@@H](c2cc(N3CCC(Oc4ccc5nnc(-c6ccccc6O)cc5c4)CC3)no2)C(C)C)cc1` [Compound 182, (2S,4R)-4-hydroxy-1-((R)-2-(3-(4-((3-(2-hydroxyphenyl)cinnolin-6-yl)oxy)piperidin-1-yl)isoxazol-5-yl)-3-methylbutanoyl)-N-((S)-1-(4-(4-methylthiazol-5-yl)phenyl)ethyl)pyrrolidine-2-carboxamide], in assay [1], the DC50 is under 10 nM and the “BRM HiBit Degradation Maximum (%)” value is “A (“A” indicates maximum degradation ≥75%)”. In addition, in assay [2], the DC50 was over 10 nM and the Dmax was over 75%.
In the case of `CC(C)[C@@H](C(=O)N1C[C@H](O)C[C@H]1C(=O)N[C@@H](C)c1ccc(F)cc1)c1cc(N2CC3(CN(c4ccc5cc(-c6ccccc6O)nnc5c4)C3)C2)no1` [Compound 89, (2S,4R)-N-((S)-1-(4-fluorophenyl)ethyl)-4-hydroxy-1-((R)-2-(3-(6-(3-(2-hydroxyphenyl)cinnolin-7-yl)-2,6-diazaspiro[3.3]heptan-2-yl)isoxazol-5-yl)-3-methylbutanoyl)pyrrolidine-2-carboxamide], in assay [1], the DC50 was under 10 nM and the “BRM HiBit Degradation Maximum (%)” value is on record as “A (“A” indicates maximum degradation ≥75%)”. Moreover, the Dmax in assay [2] was under 50%.
As for `CC(C)[C@@H](C(=O)N1C[C@H](O)C[C@H]1C(=O)N[C@@H](C)c1ccc(F)cc1)c1cc(N2CC3(CC(c4cc5nnc(-c6ccccc6O)cc5cc4C(F)F)C3)C2)no1` [Compound 283], in assay [1], the DC50 is under 10 nM and the “BRM HiBit Degradation Maximum (%)” value is “A (“A” indicates maximum degradation ≥75%)”. The Dmax in assay [2] was under 50%.
For `Cc1ncsc1-c1ccc([C@H](C)NC(=O)[C@@H]2C[C@@H](O)CN2C(=O)[C@@H](c2cc(N3CCOC4(CCN(c5ccc6cc(-c7ccccc7O)nnc6c5)CC4)C3)no2)C(C)C)cc1` [Compound 148, (2S,4R)-4-hydroxy-1-((R)-2-(3-(9-(3-(2-hydroxyphenyl)cinnolin-7-yl)-1-oxa-4,9-diazaspiro [5.5]undecan-4-yl)isoxazol-5-yl)-3-methylbutanoyl)-N-((S)-1-(4-(4-methylthiazol-5-yl)phenyl)ethyl)pyrrolidine-2-carboxamide], in assay [1], the DC50 was under 10 nM and the “BRM HiBit Degradation Maximum (%)” value was “A (“A” indicates maximum degradation ≥75%)”. Also, in assay [2], the DC50 is under 10 nM and the Dmax was over 75%.
With `Cc1ncsc1-c1ccc([C@H](C)NC(=O)[C@@H]2C[C@@H](O)CN2C(=O)[C@@H](c2cc(N3CCC4(CC[C@@H](c5ccc6nnc(-c7ccccc7O)cc6c5)C4)CC3)no2)C(C)C)cc1` [Compound 76, (2S,4R)-4-hydroxy-1-((R)-2-(3-((R)-2-(3-(2-hydroxyphenyl)cinnolin-6-yl)-8-azaspiro[4.5]decan-8-yl)isoxazol-5-yl)-3-methylbutanoyl)-N-((S)-1-(4-(4-methylthiazol-5-yl)phenyl)ethyl)pyrrolidine-2-carboxamide], in assay [1], the DC50 was under 10 nM and the “BRM HiBit Degradation Maximum (%)” value is on record as “A (“A” indicates maximum degradation ≥75%)”. Besides, in assay [2], the DC50 is over 10 nM and the Dmax is over 75%.
Regarding `Cc1ncsc1-c1ccc([C@H](C)NC(=O)[C@@H]2C[C@@H](O)CN2C(=O)[C@@H](c2cc(C3CC4(C3)CN(c3ccc5cc(-c6ccccc6O)nnc5c3)C4)no2)C(C)C)cc1` [Compound 199, (2S,4R)-4-hydroxy-1-((R)-2-(3-(2-(3-(2-hydroxyphenyl)cinnolin-7-yl)-2-azaspiro[3.3]heptan-6-yl)isoxazol-5-yl)-3-methylbutanoyl)-N-((S)-1-(4-(4-methylthiazol-5-yl)phenyl)ethyl)pyrrolidine-2-carboxamide], in assay [1], the DC50 was under 10 nM and the “BRM HiBit Degradation Maximum (%)” value was “A (“A” indicates maximum degradation ≥75%)”. Also, in assay [2], the DC50 is over 10 nM and the Dmax is over 75%.
`Cc1ncsc1-c1ccc([C@H](C)NC(=O)[C@@H]2C[C@@H](O)CN2C(=O)C(C(C)C)n2cc(N3CCCC(CN4CCN(c5ccc6cc(-c7ccccc7O)nnc6c5)CC4)C3)nn2)cc1` (stereo partly drawn) [Compound 261, (2S,4R)-4-hydroxy-1-(2-(4-(3-((4-(3-(2-hydroxyphenyl)cinnolin-7-yl)piperazin-1-yl)methyl)piperidin-1-yl)-1H-1,2,3-triazol-1-yl)-3-methylbutanoyl)-N-((S)-1-(4-(4-methylthiazol-5-yl)phenyl)ethyl)pyrrolidine-2-carboxamide]: in assay [1], the DC50 was over 10 nM and the “BRM HiBit Degradation Maximum (%)” value is recorded as “A (“A” indicates maximum degradation ≥75%)”. For the same compound, in assay [2], the DC50 is over 10 nM and the Dmax was over 75%.
Take `Cc1ncsc1-c1ccc([C@H](C)NC(=O)[C@@H]2C[C@@H](O)CN2C(=O)[C@@H](c2cc(N3CCC4(CCN(c5ccc6nnc(-c7ccccc7O)cc6c5)C4)CC3)no2)C(C)C)cc1` [Compound 72, (2S,4R)-4-hydroxy-1-((R)-2-(3-(2-(3-(2-hydroxyphenyl)cinnolin-6-yl)-2,8-diazaspiro [4.5]decan-8-yl)isoxazol-5-yl)-3-methylbutanoyl)-N-((S)-1-(4-(4-methylthiazol-5-yl)phenyl)ethyl)pyrrolidine-2-carboxamide]: in assay [1], the DC50 was under 10 nM and the “BRM HiBit Degradation Maximum (%)” value is “A (“A” indicates maximum degradation ≥75%)”. Also, in assay [2], the DC50 is over 10 nM and the Dmax is over 75%.
Regarding `Cc1ncsc1-c1ccc([C@H](C)NC(=O)[C@@H]2C[C@@H](O)CN2C(=O)[C@@H](c2cc(N3CCC4(CC[C@@H](c5ccc6cc(-c7ccccc7O)nnc6c5)C4)CC3)no2)C(C)C)cc1` [Compound 93, (2S,4R)-4-hydroxy-1-((R)-2-(3-((R)-2-(3-(2-hydroxyphenyl)cinnolin-7-yl)-8-azaspiro[4.5]decan-8-yl)isoxazol-5-yl)-3-methylbutanoyl)-N-((S)-1-(4-(4-methylthiazol-5-yl)phenyl)ethyl)pyrrolidine-2-carboxamide], in assay [1], the DC50 is under 10 nM and the “BRM HiBit Degradation Maximum (%)” value is on record as “A (“A” indicates maximum degradation ≥75%)”. Further, the Dmax in assay [2] was under 50%.
Regarding `Cc1ncsc1-c1ccc([C@H](C)NC(=O)[C@@H]2C[C@@H](O)CN2C(=O)C(C(C)C)n2cc(N3CC4(CN(c5ccc6cc(-c7ccccc7O)nnc6c5)C4)C3)cn2)cc1` (stereo in doubt) [Compound 257, (2S,4R)-4-hydroxy-1-((R)-2-(4-(6-(3-(2-hydroxyphenyl)cinnolin-7-yl)-2,6-diazaspiro[3.3]heptan-2-yl)-1H-pyrazol-1-yl)-3-methylbutanoyl)-N-((S)-1-(4-(4-methylthiazol-5-yl)phenyl)ethyl)pyrrolidine-2-carboxamide], in assay [1], the DC50 was under 10 nM and the “BRM HiBit Degradation Maximum (%)” value is on record as “A (“A” indicates maximum degradation ≥75%)”. Further, the Dmax in assay [2] was under 50%.
As to `Cc1ncsc1-c1ccc([C@H](C)NC(=O)[C@@H]2C[C@@H](O)CN2C(=O)C(C(C)C)n2cc(N3CCC(C4CN(c5ccc6nnc(-c7ccccc7O)cc6c5)C4)C3)nn2)cc1` (stereo partly drawn) [Compound 269, (2S,4R)-4-hydroxy-1-(2-(4-(3-(1-(3-(2-hydroxyphenyl)cinnolin-6-yl)azetidin-3-yl)pyrrolidin-1-yl)-1H-1,2,3-triazol-1-yl)-3-methylbutanoyl)-N-((S)-1-(4-(4-methylthiazol-5-yl)phenyl)ethyl)pyrrolidine-2-carboxamide], in assay [1], the DC50 was under 10 nM and the “BRM HiBit Degradation Maximum (%)” value is reported as “A (“A” indicates maximum degradation ≥75%)”. Also, in assay [2], the DC50 is over 10 nM and the Dmax was over 75%.
In the case of `Cc1ncsc1-c1ccc([C@H](C)NC(=O)[C@@H]2C[C@@H](O)CN2C(=O)[C@H](C(C)C)n2cc(N3CC4(CN(c5ccc6cc(-c7ccccc7O)nnc6c5)C4)C3)nn2)cc1` [Compound 169, (2S,4R)-4-hydroxy-1-((S)-2-(4-(6-(3-(2-hydroxyphenyl)cinnolin-7-yl)-2,6-diazaspiro[3.3]heptan-2-yl)-1H-1,2,3-triazol-1-yl)-3-methylbutanoyl)-N-((S)-1-(4-(4-methylthiazol-5-yl)phenyl)ethyl)pyrrolidine-2-carboxamide], in assay [1], the DC50 is under 10 nM and the “BRM HiBit Degradation Maximum (%)” value is “A (“A” indicates maximum degradation ≥75%)”. Besides, in assay [2], the DC50 was under 10 nM and the Dmax was over 50%.
For `Cc1ncsc1-c1ccc([C@H](C)NC(=O)[C@@H]2C[C@@H](O)CN2C(=O)[C@H](C(C)C)n2cc(N3CC4(CN(c5ccc6nnc(-c7ccccc7O)cc6c5)CCO4)C3)nn2)cc1` [Compound 189, (2S,4R)-4-hydroxy-1-((S)-2-(4-(8-(3-(2-hydroxyphenyl)cinnolin-6-yl)-5-oxa-2,8-diazaspiro[3.5]nonan-2-yl)-1H-1,2,3-triazol-1-yl)-3-methylbutanoyl)-N-((S)-1-(4-(4-methylthiazol-5-yl)phenyl)ethyl)pyrrolidine-2-carboxamide], in assay [1], the DC50 was under 10 nM and the “BRM HiBit Degradation Maximum (%)” value is given as “A (“A” indicates maximum degradation ≥75%)”. In addition, the Dmax in assay [2] is under 50%.
